Measured values reported in patent US20130065818A1, “Arylamide Compounds And Compositions And Uses Thereof” (POLYMEDIX, priority 2006, published 2013).
In brackets after ≈: the same amount, converted by molar mass. Where two headings read alike, the source gives them in different places.

What was measured:
[1] = test system: Moraxella species (including Moraxella catarrhalis); test: MIC, 25 ocular isolates, broth microdilution (Example 8); type: cell-based
Experimental: (§1) Mueller-Hinton Broth supplemented with 2% lysed horse blood in tubes was inoculated with 25 ocular isolates of Streptococcus pneumoniae, Streptococcus viridans group, and Moraxella species (including Moraxella catarrhalis) plus two controls (Staphylococcus aureus and E. coli) and incubated at 37° C. overnight. Additionally, Mueller-Hinton Broth in tubes was inoculated with two controls (Staphylococcus aureus and E. coli) and incubated at 37° C. overnight on a shaker set at 250 rpm.
(§2) On the day of testing, a 640 μg/ml (1280 μg/ml for Serratia marcescens and Pseudomonas aeruginosa) concentration was prepared from a 1% stock solution in 0.01% acetic acid, 0.2% BSA in polypropylene tubes.
(§3) Serial doubling dilutions in 0.01% acetic acid, 0.2% BSA in 96 well polypropylene plates, which are used as reservoirs for the inoculation of the test plates, were carried out to obtain serial dilutions of test agents at 10 times the required test concentrations: 640, 320, 160, 80, 40, 20, 10, 5, 2.5, 1.25, and 0.625 μg/ml (1280, 640, 320, 160, 80, 40, 20, 10, 5, 2.5, and 1.25 μg/ml for Serratia marcescens and Pseudomonas aeruginosa).
(§4) Ten μl of diluted 10×test agents was added to each well of one row of the 96 well polypropylene plates from column 2 to column 12 (column 1 is a control for bacteria alone, with no peptide). Test agent concentrations in columns 2-12 were as follows: 64, 32, 16, 8, 4, 2, 1, 0.5, 0.25, 0.125, and 0.0625 μg/ml (128, 64, 32, 16, 8, 4, 2, 1, 0.5, 0.25, and 0.125 μg/ml for Serratia marcescens and Pseudomonas aeruginosa). The same peptide was in each of the 8 rows. One plate contained dilutions of one test agent and 8 bacterial isolates.
(§5) On the day of testing, the overnight bacterial broth cultures of Streptococcus pneumoniae, Streptococcus viridans and Moraxella species (including Moraxella catarrhalis) plus two controls (Staphylococcus aureus and E. coli) were diluted in 5 ml of trypticase soy broth to yield turbidity equal to a 0.5 McFarland standard. The final inoculum for MIC testing for Streptococcus pneumoniae, Streptococcus viridans and Moraxella species (including Moraxella catarrhalis) was achieved by placing 0.1 ml of the turbidity adjusted sample to 5 ml of Mueller-Hinton broth containing 2% lysed horse red blood cells.
(§6) Ninety μl of the bacterial suspensions was dispensed in each well from column 1 to column 12. Each bacterial isolate was placed in one row of a 96 well polypropylene plate containing the test agents. The plates were placed on shaker at 15 minutes at room temperature, and then incubated at 37° C. overnight. MICs were determined visually as the lowest concentration of drug that inhibits visible bacterial growth.

[2] = test system: Streptococcus viridans group; test: as above; type: cell-based
Experimental: as §1, §2, §3, §4, §5, §6

[3] = n=25 isolates, >64 replaced with 128

What does the source list for `N=C(N)NCCCCC(=O)Nc1cc(C(F)(F)F)cc(NC(=O)c2cnc(C(=O)Nc3cc(C(F)(F)F)cc(NC(=O)CCCCNC(=N)N)c3SCCN)cn2)c1SCCN` [Oligomer 5]?
MIC ([1]; Moraxella, isolate 16 K660 - MS, read-out: MIC): 0.25 µg/mL (≈ 0.273 µM); MIC ([1]; Moraxella, isolate 17 K599 - MC, read-out: MIC): 0.25 µg/mL (≈ 0.273 µM); MIC ([1]; Moraxella, isolate 18 K1650 - MC, read-out: MIC): 0.25 µg/mL (≈ 0.273 µM); MIC ([1]; Moraxella, isolate 19 K1373 - MC, read-out: MIC): 0.125 µg/mL (≈ 0.136 µM); MIC ([1]; Moraxella, isolate 20 K1553 - MC, read-out: MIC): 2 µg/mL (≈ 2.18 µM); MIC ([1]; Moraxella, isolate 21 K1453 - MC, read-out: MIC): 64 µg/mL (≈ 69.8 µM); MIC ([1]; Moraxella, isolate 22 K1227 - MC, read-out: MIC): 1 µg/mL (≈ 1.09 µM); MIC ([1]; Moraxella, isolate 23 B1102 - MC, read-out: MIC): 0.5 µg/mL (≈ 0.545 µM); MIC ([1]; Moraxella, isolate 24 K1819 - MC, read-out: MIC): 32 µg/mL (≈ 34.9 µM); MIC ([1]; Moraxella, isolate 25 K1855 - MC, read-out: MIC): 8 µg/mL (≈ 8.72 µM); MIC50 ([1]; Moraxella, n=25 isolates, >64 replaced with 128, read-out: MIC50): 0.5 µg/mL (≈ 0.545 µM); MIC90 ([1]; Moraxella, n=25 isolates, >64 replaced with 128, read-out: MIC90): 32 µg/mL (≈ 34.9 µM); MIC ([1]; Moraxella, n=25 isolates, >64 replaced with 128, read-out: Median MIC): 0.5 µg/mL (≈ 0.545 µM); MIC50 [1, 3]: 0.5 µg/mL (≈ 0.545 µM); MIC90 [1, 3]: 32 µg/mL (≈ 34.9 µM); Range of MICs [1, 3]: 0.125 to 128 µg/mL; MIC50 ([2]; 25 isolates, Row 13): 16 µg/mL (≈ 17.4 µM); MIC90 ([2]; 25 isolates, Row 22, >64 was Replaced with 128): 128 µg/mL (≈ 140 µM); Range of MICs ([2]; 25 isolates, Summary of Results, >64 was Replaced with 128): 0.5 to 128 µg/mL; MIC ([2]; Streptococcus viridans, 25 ocular isolates, Mueller-Hinton broth with 2% lysed horse red blood cells, read-out: Median MIC): 16 µg/mL (≈ 17.4 µM); MIC ([2]; Streptococcus viridans, isolate 1—K1684, read-out: MIC): 8 µg/mL (≈ 8.72 µM); MIC ([2]; Streptococcus viridans, isolate 2—K1680, read-out: MIC): 64 µg/mL (≈ 69.8 µM); MIC ([2]; Streptococcus viridans, isolate 3—E546, read-out: MIC): 8 µg/mL (≈ 8.72 µM); MIC ([2]; Streptococcus viridans, isolate 4—E272, read-out: MIC): 16 µg/mL (≈ 17.4 µM); MIC ([2]; Streptococcus viridans, isolate 5—E506, read-out: MIC): > 64 µg/mL; MIC ([2]; Streptococcus viridans, isolate 6—E496, read-out: MIC): 0.5 µg/mL (≈ 0.545 µM); MIC ([2]; Streptococcus viridans, isolate 7—E456, read-out: MIC): 16 µg/mL (≈ 17.4 µM); MIC ([2]; Streptococcus viridans, isolate 8—E432, read-out: MIC): 8 µg/mL (≈ 8.72 µM); MIC ([2]; Streptococcus viridans, isolate 9—E423, read-out: MIC): > 64 µg/mL; MIC ([2]; Streptococcus viridans, isolate 10—E418, read-out: MIC): > 64 µg/mL; MIC ([2]; Streptococcus viridans, isolate 11—E412, read-out: MIC): 8 µg/mL (≈ 8.72 µM); MIC ([2]; Streptococcus viridans, isolate 12—E409, read-out: MIC): 32 µg/mL (≈ 34.9 µM); MIC ([2]; Streptococcus viridans, isolate 13—E405, read-out: MIC): > 64 µg/mL; MIC ([2]; Streptococcus viridans, isolate 14—E404, read-out: MIC): > 64 µg/mL; MIC ([2]; Streptococcus viridans, isolate 15—E396, read-out: MIC): 32 µg/mL (≈ 34.9 µM); MIC ([2]; Streptococcus viridans, isolate 16—E262, read-out: MIC): 4 µg/mL (≈ 4.36 µM); MIC ([2]; Streptococcus viridans, isolate 17—E362, read-out: MIC): 16 µg/mL (≈ 17.4 µM); MIC ([2]; Streptococcus viridans, isolate 18—E359, read-out: MIC): 32 µg/mL (≈ 34.9 µM); MIC ([2]; Streptococcus viridans, isolate 19—E348, read-out: MIC): 16 µg/mL (≈ 17.4 µM); MIC ([2]; Streptococcus viridans, isolate 20—E344, read-out: MIC): 4 µg/mL (≈ 4.36 µM); MIC ([2]; Streptococcus viridans, isolate 21—E308, read-out: MIC): 4 µg/mL (≈ 4.36 µM); MIC ([2]; Streptococcus viridans, isolate 22—E294, read-out: MIC): 2 µg/mL (≈ 2.18 µM); MIC ([2]; Streptococcus viridans, isolate 23—E292, read-out: MIC): 0.5 µg/mL (≈ 0.545 µM); MIC ([2]; Streptococcus viridans, isolate 24—E285, read-out: MIC): 0.5 µg/mL (≈ 0.545 µM); MIC ([2]; Streptococcus viridans, isolate 25—E265, read-out: MIC): 8 µg/mL (≈ 8.72 µM); MIC ([2]; Streptococcus viridans, n=25 per group, read-out: Median MIC): 16 µg/mL (≈ 17.4 µM); MIC90 ([2]; Streptococcus viridans, 25 isolates, Summary of Results, >64 was Replaced with 128, read-out: MIC90): 128 µg/mL (≈ 140 µM); MIC50 ([2]; Streptococcus viridans, 25 isolates, Summary of Results, read-out: MIC50): 16 µg/mL (≈ 17.4 µM); MIC ([2]; Streptococcus viridans, 25 isolates, Summary of Results, read-out: Median MIC): 16 µg/mL (≈ 17.4 µM); MIC50 ([2]; n=25 per group): 16 µg/mL (≈ 17.4 µM); MIC90 ([2]; n=25 per group): 128 µg/mL (≈ 140 µM); Range of MICs ([2]; n=25 per group): 0.5 to 128 µg/mL
